# Patent publication US20200188466A1, “COMPOSITIONS OF SCHISANDRA EXTRACTS AND METHODS THEREOF” (Reyoung Corporation, priority 2017, published 2020)
# Where two headings read alike, the source gives them in different places.
# Assay: Plasma kinetic study of colchicine with and without Schisandrin A
# Assay type: in vivo
# Details: male, Sprague Dawley, rat, po, 3 mg/kg; for AUC(0-t): read-out: AUC0→t of colchicine; for AUC(0-inf): read-out: AUC0→∞ of colchicine; for MRT last: read-out: MRT0→t of colchicine; for MRT inf: read-out: MRT0→∞ of colchicine; for half-life: read-out: T1/2 of colchicine (converted)
# Procedure: 42 Male Sprague Dawley rats (weight, 170-210 g) were maintained on a 12-h light/dark cycle with free access to water and lab chow for 10-14 h prior to the experiment. Rats were randomly divided into 7 groups (n=6 each) and groups 2-7 received 0 mg/kg, 6.3 mg/kg, and 12.6 mg/kg, 25.2 mg/kg, 50.4 mg/kg and 63.0 mg/kg of Schisandrin A in 1% CMC-Na (300-800 cps) via oral administration, respectively. After 5 minutes, all the groups received 3.0 mg/kg of colchicine in a solution of 2% DMSO-98% sterile water via oral administration.
# After colchicine treatment, blood samples were collected from individual rat at 5 min, 15 min, 0.5 h, 1 h, 2 h, 4 h, 6 h, 8 h, 10 h, 24 h respectively. Plasma was separated by centrifugation at 8000 rpm for 6 minutes at 4° C. and kept at −80° C. until analysis. Plasma homogenate was injected into LC-MS/MS for analysis. Pharmacokinetic parameters of colchicine after a single oral dose of colchicine (3.0 mg/kg) in rats with and without different dose of Schisandrin A, including area under the concentration-time curve (AUC), mean residence time (MRT) and terminal elimination half-life (T1/2), Cmax, and Tmax are shown in Table 5.
# [1] = Group1, rats, colchicine 3.0 mg/kg oral, no Schisandrin A dose stated
# [2] = Group2, rats, Schisandrin A 0 mg/kg oral 5 min before colchicine 3.0 mg/kg oral
# [3] = Group3, rats, Schisandrin A 6.3 mg/kg oral 5 min before colchicine 3.0 mg/kg oral
# [4] = Group4, rats, Schisandrin A 12.6 mg/kg oral 5 min before colchicine 3.0 mg/kg oral
# [5] = Group5, rats, Schisandrin A 25.2 mg/kg oral 5 min before colchicine 3.0 mg/kg oral
# [6] = Group6, rats, Schisandrin A 50.4 mg/kg oral 5 min before colchicine 3.0 mg/kg oral
# [7] = Group7, rats, Schisandrin A 63.0 mg/kg oral 5 min before colchicine 3.0 mg/kg oral
compound,measurement,setting,value
COc1cc2c(c(OC)c1OC)-c1ccc(OC)c(=O)cc1[C@@H](NC(C)=O)CC2 [colchicine],Cmax,[1],0.0134 ± 0.00438 µg/mL
same,Tmax,[1],0.17 ± 0.09 h
same,AUC(0-t),[1],0.0489 ± 0.0149 µg·h/mL
same,AUC(0-inf),[1],0.0575 ± 0.0161 µg·h/mL
same,MRT last,[1],4.54 ± 1.33 h
same,MRT inf,[1],6.99 ± 1.99 h
same,half-life,[1],5.2 ± 2.31 h
same,Cmax,[2],0.0103 ± 0.00263 µg/mL
same,Tmax,[2],0.22 ± 0.07 h
same,AUC(0-t),[2],0.0329 ± 0.0209 µg·h/mL
same,AUC(0-inf),[2],0.0406 ± 0.0222 µg·h/mL
same,MRT last,[2],3.89 ± 1.74 h
same,MRT inf,[2],6.86 ± 2.77 h
same,half-life,[2],4.67 ± 2.04 h
same,Cmax,[3],0.0244 ± 0.00612 µg/mL
same,Tmax,[3],0.19 ± 0.09 h
same,AUC(0-t),[3],0.0744 ± 0.027 µg·h/mL
same,AUC(0-inf),[3],0.0845 ± 0.0305 µg·h/mL
same,MRT last,[3],5.04 ± 1.86 h
same,MRT inf,[3],7.67 ± 3.34 h
same,half-life,[3],6.12 ± 2.86 h
same,Cmax,[4],0.0257 ± 0.00967 µg/mL
same,Tmax,[4],0.19 ± 0.09 h
same,AUC(0-t),[4],0.071 ± 0.0333 µg·h/mL
same,AUC(0-inf),[4],0.0797 ± 0.0348 µg·h/mL
same,MRT last,[4],3.95 ± 1.2 h
same,MRT inf,[4],6.54 ± 3.18 h
same,half-life,[4],6.56 ± 4.7 h
same,Cmax,[5],0.0293 ± 0.0119 µg/mL
same,Tmax,[5],0.11 ± 0.07 h
same,AUC(0-t),[5],0.0755 ± 0.0276 µg·h/mL
same,AUC(0-inf),[5],0.0868 ± 0.0362 µg·h/mL
same,MRT last,[5],4.04 ± 1.44 h
same,MRT inf,[5],7.29 ± 4.72 h
same,half-life,[5],7.53 ± 6.49 h
same,Cmax,[6],0.0482 ± 0.0124 µg/mL
same,Tmax,[6],0.31 ± 0.16 h
same,AUC(0-t),[6],0.151 ± 0.0414 µg·h/mL
same,AUC(0-inf),[6],0.186 ± 0.0705 µg·h/mL
same,MRT last,[6],5.1 ± 0.77 h
same,MRT inf,[6],11.7 ± 6.87 h
same,half-life,[6],13 ± 6.29 h
same,Cmax,[7],0.0338 ± 0.014 µg/mL
same,Tmax,[7],0.26 ± 0.13 h
same,AUC(0-t),[7],0.0848 ± 0.0393 µg·h/mL
same,AUC(0-inf),[7],0.0987 ± 0.0419 µg·h/mL
same,MRT last,[7],4.09 ± 1.76 h
same,MRT inf,[7],7.52 ± 3.62 h
same,half-life,[7],7.59 ± 3.65 h
